Laboratory results: US9724331B2, “Use of maleimide derivatives for preventing and treating leukemia” (CENTOGENE AG, priority 2012, dated 2017)

What was measured:
Test in all cases: Metabolic activity, WST-1 assay
Type in all cases: cell-based, human
[1] = tested on: Molt-4 cells; settings: 0.5 μM PDA-66, 72 h, mean±SD
Description: (§1) The human B-ALL cell lines SEM, RS4;11 and the human T-ALL cell lines Jurkat and Molt-4 were purchased from DSMZ (Germany) and cultured according to manufacturer's protocol. The corresponding medium was supplemented with 10% heat-inactivated fetal bovine serum (PAA, Pasching, Austria) and 1% penicillin and streptomycin (Biochrom AG, Berlin, Germany). The Molt-4 cells were cultured with medium supplemented with 20% heat-inactivated fetal bovine serum. All cells were maintained at 37° C. in 5% CO2. Cells (5×10^5/well) were seeded in 24 well plates (Nunc, Langenselbold, Germany) and incubated for up to 72 h with PDA-66. Treated cells were harvested after 4, 24, 48 and 72 h and used for further analyses.
(§2) Cell counts were determined using the trypan blue staining. Metabolic activity was analyzed by using tetrazolium compound WST-1 (Roche, Mannheim, Germany). In brief, triplicates of cells (5×10^4/well) were seeded in 96 well plates, treated with PDA-66 and incubated with 15 μl WST-1 for up to 4 h. The mitochondrial dehydrogenases reduce WST-1 to soluble formazan and cause a change of color, which correlates with the amount of metabolically active cells. Absorbance at 450 nm and a reference wavelength at 620 nm were determined by an ELISA Reader (Anthos, Krefeld, Germany). The absorbance of culture medium with supplemented WST-1 in the absence of cells was used as background control.
(§3) The influence of PDA-66 on proliferation in ALL cell lines SEM, RS4;11, Jurkat and Molt-4 was analyzed by incubation with different concentrations of the drug (0.001 μM to 10 μM). Metabolic activity was determined using WST-1 assay. […] Results are summarized in FIG. 2, whereby the individual nine bars for each set of experiments represent, from left to right, DMSO, 0.001 μM, 0.01 μM, 0.1 μM, 0.25 μM, 0.5 μM, 1.0 μM, 5 μM and 10 μM. After 48 h of incubation an inhibition of proliferation could be observed, but was more distinct after 72 h.

[2] = tested on: Jurkat cells
Description: as §1, §2, §3

[3] = tested on: SEM cells
Description: as §1, §2, §3

[4] = tested on: RS4;11 cells; settings: 0.5 μM PDA-66, 72 h, mean±SD
Description: as §1, §2, §3

With CC(=O)c1ccc(C2=C(c3c(C)[nH]c4ccccc34)C(=O)N(C)C2=O)cc1 [PDA-66, 3-(4-Acetylphenyl)-1-methyl-4-(2-methyl-1H-indol-3-yl)-1H-pyrrole-2,5-dione] the “metabolic activity compared to control cells treated with DMSO” value [1] was 35.5±17%, the IC50 ([2]; Homo sapiens, Jurkat cells, 72 h of incubation) was 1280 nM and the “metabolic activity compared to control cells treated with DMSO” value ([2]; Jurkat, 0.5 μM PDA-66, 72 h, mean±SD) was 66.7±8%. For the same compound, the IC50 ([3]; Homo sapiens, SEM cells, 72 h of incubation) was 410 nM, the “metabolic activity compared to control cells treated with DMSO” value ([3]; SEM, 0.5 μM PDA-66, 72 h, mean±SD) was 35.7±8.3% and the “metabolic activity compared to control cells treated with DMSO” value [4] was 33.3±4.4%.
